Legend:
Assay type in all cases: biochemical
[1] = molecular target: T1, B-Raf (Homo sapiens, UniProt P15056); assay: AlphaScreen kinase assay, B-Raf; settings: read-out: IC50, activity toward kinase B-Raf
T1 construct: purchased Upstate Biotechnology

[2] = molecular target: T2, FGFR1 (Homo sapiens, UniProt P11362, C488A/C584S); assay: AlphaScreen kinase assay, FGFR1; settings: read-out: IC50, activity toward kinase FGFR
T2 construct: P1351.pET N6 BI-PTP FGFR A458-E765-X C488A, C584S; made in house; host or cells: E. coli (PTP1B co-expressed)

[3] = molecular target: T3, Fms (Homo sapiens, UniProt P07333); assay: AlphaScreen kinase assay, Fms; settings: read-out: IC50, activity toward kinase Fms
T3 construct: purchased Upstate Biotechnology

[4] = molecular target: T4, B-Raf V600E (Homo sapiens, UniProt P15056, V600E); assay: AlphaScreen kinase assay, B-Raf V600E; settings: read-out: IC50, activity toward kinase B-Raf V600E
T4 construct: P4254. pFastBacBD-CDC37 BRAF D437-K722-X, V600E; His6 with pFastBac HT leader (TEV site) (N); made in house; host or cells: Sf9 (baculovirus; chaperone CDC37 co-expressed)

[5] = molecular target: T5, Kit (Homo sapiens, UniProt P10721); assay: AlphaScreen kinase assay, Kit; settings: read-out: IC50, activity toward kinase Kit
T5 construct: P1332.N6 BI PTP KIT M552-K948-X COD; His6 (N); made in house; host or cells: E. coli (PTP1B co-expressed)

Measured: IC50

T3 sequence (P07333 20-972): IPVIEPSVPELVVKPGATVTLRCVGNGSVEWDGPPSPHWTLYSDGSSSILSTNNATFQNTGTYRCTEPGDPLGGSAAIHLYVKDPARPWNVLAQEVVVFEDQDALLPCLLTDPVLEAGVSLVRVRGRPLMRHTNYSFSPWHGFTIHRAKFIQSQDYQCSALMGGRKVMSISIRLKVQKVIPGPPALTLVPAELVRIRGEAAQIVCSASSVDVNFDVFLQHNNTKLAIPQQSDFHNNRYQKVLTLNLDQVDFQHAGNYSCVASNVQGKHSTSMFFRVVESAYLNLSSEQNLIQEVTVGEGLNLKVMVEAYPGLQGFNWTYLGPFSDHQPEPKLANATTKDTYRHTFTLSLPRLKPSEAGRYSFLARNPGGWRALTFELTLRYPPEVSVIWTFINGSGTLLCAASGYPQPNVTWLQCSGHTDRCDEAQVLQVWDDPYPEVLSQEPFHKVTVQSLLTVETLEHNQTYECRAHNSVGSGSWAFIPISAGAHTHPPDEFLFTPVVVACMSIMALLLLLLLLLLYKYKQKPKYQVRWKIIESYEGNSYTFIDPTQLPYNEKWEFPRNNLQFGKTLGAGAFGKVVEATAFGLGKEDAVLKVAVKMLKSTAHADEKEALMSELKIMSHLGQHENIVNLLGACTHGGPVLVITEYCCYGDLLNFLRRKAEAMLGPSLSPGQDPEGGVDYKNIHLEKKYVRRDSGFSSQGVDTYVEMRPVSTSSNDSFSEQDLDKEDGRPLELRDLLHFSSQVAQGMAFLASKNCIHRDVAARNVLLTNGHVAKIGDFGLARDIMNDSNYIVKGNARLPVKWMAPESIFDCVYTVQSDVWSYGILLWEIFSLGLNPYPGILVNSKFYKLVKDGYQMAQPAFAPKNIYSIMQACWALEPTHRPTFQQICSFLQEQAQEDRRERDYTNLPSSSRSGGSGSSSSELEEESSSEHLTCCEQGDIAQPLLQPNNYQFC
T5 sequence (P10721 with tags, fused parts or gaps): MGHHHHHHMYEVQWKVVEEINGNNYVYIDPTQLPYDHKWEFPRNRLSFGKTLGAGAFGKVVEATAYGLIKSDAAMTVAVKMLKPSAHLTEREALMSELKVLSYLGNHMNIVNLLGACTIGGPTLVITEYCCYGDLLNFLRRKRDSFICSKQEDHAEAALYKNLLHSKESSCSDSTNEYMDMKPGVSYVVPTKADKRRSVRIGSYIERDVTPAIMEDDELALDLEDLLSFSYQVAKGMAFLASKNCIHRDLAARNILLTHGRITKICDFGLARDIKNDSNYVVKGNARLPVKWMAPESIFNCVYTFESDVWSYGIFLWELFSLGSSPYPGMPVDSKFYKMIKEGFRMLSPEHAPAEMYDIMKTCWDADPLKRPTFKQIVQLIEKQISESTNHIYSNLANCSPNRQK
T1 sequence (P15056 whole entry): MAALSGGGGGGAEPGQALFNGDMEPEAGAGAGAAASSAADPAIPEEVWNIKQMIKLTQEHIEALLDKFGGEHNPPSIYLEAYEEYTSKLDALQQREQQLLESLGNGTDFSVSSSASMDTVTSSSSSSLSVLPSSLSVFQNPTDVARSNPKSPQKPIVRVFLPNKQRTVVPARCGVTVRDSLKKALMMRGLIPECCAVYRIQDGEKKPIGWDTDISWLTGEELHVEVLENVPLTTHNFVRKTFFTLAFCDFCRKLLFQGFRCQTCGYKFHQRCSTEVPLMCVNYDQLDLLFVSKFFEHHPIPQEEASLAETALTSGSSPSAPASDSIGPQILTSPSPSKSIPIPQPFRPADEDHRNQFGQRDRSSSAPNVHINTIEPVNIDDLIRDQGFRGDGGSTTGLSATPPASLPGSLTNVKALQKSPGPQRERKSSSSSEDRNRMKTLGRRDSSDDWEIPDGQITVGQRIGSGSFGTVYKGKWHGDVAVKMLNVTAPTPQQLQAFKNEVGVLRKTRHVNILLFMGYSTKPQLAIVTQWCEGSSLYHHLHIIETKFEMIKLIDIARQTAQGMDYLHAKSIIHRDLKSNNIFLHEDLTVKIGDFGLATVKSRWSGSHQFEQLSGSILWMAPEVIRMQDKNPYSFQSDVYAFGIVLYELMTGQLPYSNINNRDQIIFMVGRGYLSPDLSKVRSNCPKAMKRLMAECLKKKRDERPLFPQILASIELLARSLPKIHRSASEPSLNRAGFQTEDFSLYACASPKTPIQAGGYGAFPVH
T4 sequence (P15056 with tags, fused parts or gaps V600E): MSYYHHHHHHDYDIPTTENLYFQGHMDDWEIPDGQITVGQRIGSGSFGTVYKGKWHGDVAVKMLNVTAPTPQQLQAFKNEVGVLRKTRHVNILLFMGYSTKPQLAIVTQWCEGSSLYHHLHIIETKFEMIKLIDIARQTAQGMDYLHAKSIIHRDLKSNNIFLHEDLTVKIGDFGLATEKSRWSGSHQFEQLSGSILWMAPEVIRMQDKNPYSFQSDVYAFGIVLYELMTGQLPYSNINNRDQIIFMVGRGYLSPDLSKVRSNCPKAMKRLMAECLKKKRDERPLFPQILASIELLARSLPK
T2 sequence (P11362 458-765 C488A/C584S): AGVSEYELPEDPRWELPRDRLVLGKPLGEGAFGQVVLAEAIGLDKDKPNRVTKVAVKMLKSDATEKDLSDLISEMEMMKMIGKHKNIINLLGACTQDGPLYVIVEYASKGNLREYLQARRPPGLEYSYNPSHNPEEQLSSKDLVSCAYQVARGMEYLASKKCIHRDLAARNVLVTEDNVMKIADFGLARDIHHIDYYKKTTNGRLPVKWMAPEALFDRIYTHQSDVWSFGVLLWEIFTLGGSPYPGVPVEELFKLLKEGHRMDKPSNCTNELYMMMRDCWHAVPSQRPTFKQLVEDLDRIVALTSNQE

O=C(c1ccc(F)cc1F)c1c[nH]c2ncc(-c3cccnc3)cc12 [Compound P-1555]
≤ 10 µM: [1] | [2] | [3]

COc1ccc(NC(=O)Nc2cccc(C(=O)c3c[nH]c4ncccc34)c2)cc1 [Compound P-1705, 1-(4-Methoxy-phenyl)-3-[3-(1H-pyrrolo[2,3-b]pyridine-3-carbonyl)-phenyl]-urea]
not listed: [2]
≤ 10 µM: all other assays above

O=C(Nc1ccc(Cl)cc1)Nc1cccc(C(=O)c2c[nH]c3ncccc23)c1 [Compound P-1709, 1-(4-Chloro-phenyl)-3-[3-(1H-pyrrolo[2,3-b]pyridine-3-carbonyl)-phenyl]-urea]
not listed: [2]
≤ 10 µM: all other assays above

Cc1ccc(NC(=O)Nc2cccc(C(=O)c3c[nH]c4ncccc34)c2)cc1 [Compound P-1718, 1-[3-(1H-Pyrrolo[2,3-b]pyridine-3-carbonyl)-phenyl]-3-p-tolyl-urea]
not listed: [2]
≤ 10 µM: all other assays above

Cc1cccc(NC(=O)Nc2cccc(C(=O)c3c[nH]c4ncccc34)c2)c1 [Compound P-1719, 1-[3-(1H-Pyrrolo[2,3-b]pyridine-3-carbonyl)-phenyl]-3-m-tolyl-urea]
not listed: [2]
≤ 10 µM: all other assays above

CN(C)c1ccc(NC(=O)Nc2cccc(C(=O)c3c[nH]c4ncccc34)c2)cc1 [Compound P-1780, 1-(4-Dimethylamino-phenyl)-3-[3-(1H-pyrrolo[2,3-b]pyridine-3-carbonyl)-phenyl]-urea]
≤ 10 µM: [1] | [4] | [3]

O=C(Nc1cccnc1)Nc1cccc(C(=O)c2c[nH]c3ncccc23)c1 [Compound P-1781, 1-Pyridin-3-yl-3-[3-(1H-pyrrolo[2,3-b]pyridine-3-carbonyl)-phenyl]-urea]
≤ 10 µM: [1] | [4] | [3]

CN(C)c1ccc(NC(=O)Nc2cccc(C(=O)c3c[nH]c4ncc(Cl)cc34)c2)cc1 [Compound P-1782, 1-[3-(5-Chloro-1H-pyrrolo[2,3-b]pyridine-3-carbonyl)-phenyl]-3-(4-dimethylamino-phenyl)-urea]
≤ 10 µM: [1] | [4] | [3]

O=C(c1cccc(NS(=O)(=O)c2ccc(C(F)(F)F)cc2)c1)c1c[nH]c2ncccc12 [Compound P-1784]
≤ 10 µM: [1] | [4] | [3]

O=C(c1c(F)ccc(NS(=O)(=O)c2ccsc2)c1F)c1c[nH]c2ncc(Br)cc12 [Compound P-1798, Thiophene-3-sulfonic acid [3-(5-bromo-1H-pyrrolo[2,3-b]pyridine-3-carbonyl)-2,4-difluoro-phenyl]-amide]
not listed: [2]
≤ 10 µM: all other assays above

O=C(c1c(F)ccc(NS(=O)(=O)c2cc3ccccc3s2)c1F)c1c[nH]c2ncc(Cl)cc12 [Compound P-1799, Benzo[b]thiophene-2-sulfonic acid [3-(5-chloro-1H-pyrrolo[2,3-b]pyridine-3-carbonyl)-2,4-difluoro-phenyl]-amide]
≤ 10 µM: [1] | [4] | [3]

O=C(c1c(F)ccc(NS(=O)(=O)c2ccc(-c3ccccn3)s2)c1F)c1c[nH]c2ncc(Cl)cc12 [Compound P-1800, 5-Pyridin-2-yl-thiophene-2-sulfonic acid [3-(5-chloro-1H-pyrrolo[2,3-b]pyridine-3-carbonyl)-2,4-difluoro-phenyl]-amide]
≤ 10 µM: [1] | [4] | [3]

COc1cnc2[nH]cc(Cc3c(F)ccc(OCc4ccccc4)c3F)c2c1 [Compound P-1804, 3-(3-Benzyloxy-2,6-difluoro-benzyl)-5-methoxy-1H-pyrrolo[2,3-b]pyridine]
≤ 10 µM: [1] | [4] | [3]

O=C(Nc1ccc(F)cc1)Nc1cccc(C(=O)c2c[nH]c3ncc(-c4ccc(F)cc4)cc23)c1 [Compound P-1816, 1-(4-Fluoro-phenyl)-3-{3-[5-(4-fluoro-phenyl)-1H-pyrrolo[2,3-b]pyridine-3-carbonyl]-phenyl}-urea]
≤ 10 µM: [1] | [4] | [3]

O=C(Nc1cccc(C(=O)c2c[nH]c3ncc(-c4ccc(F)cc4)cc23)c1)Nc1ccc(F)c(F)c1 [Compound P-1817, 1-(3,4-Difluoro-phenyl)-3-{3-[5-(4-fluoro-phenyl)-1H-pyrrolo[2,3-b]pyridine-3-carbonyl]-phenyl}-urea]
≤ 10 µM: [1] | [4] | [3]

COc1ccc(NC(=O)Nc2cccc(C(=O)c3c[nH]c4ncc(-c5ccc(F)cc5)cc34)c2)cc1OC [Compound P-1818, 1-(3,4-Dimethoxy-phenyl)-3-{3-[5-(4-fluoro-phenyl)-1H-pyrrolo[2,3-b]pyridine-3-carbonyl]-phenyl}-urea]
≤ 10 µM: [1] | [4] | [3]

O=C(Nc1cccc(F)c1)Nc1cccc(C(=O)c2c[nH]c3ncc(-c4ccc(F)cc4)cc23)c1 [Compound P-1819, 1-(3-Fluoro-phenyl)-3-{3-[5-(4-fluoro-phenyl)-1H-pyrrolo[2,3-b]pyridine-3-carbonyl]-phenyl}-urea]
≤ 10 µM: [1] | [4] | [3]

COC(=O)c1ccc(S(=O)(=O)Nc2ccc(F)c(C(=O)c3c[nH]c4ncc(Cl)cc34)c2F)o1 [Compound P-1907, 5-[3-(5-Chloro-1H-pyrrolo[2,3-b]pyridine-3-carbonyl)-2,4-difluoro-phenylsulfamoyl]-furan-2-carboxylic acid methyl ester]
≤ 10 µM: [1] | [4] | [3]

O=C(c1c(F)ccc(NS(=O)(=O)c2ccccc2F)c1F)c1c[nH]c2ncc(Cl)cc12 [Compound P-1912, N-[3-(5-Chloro-1H-pyrrolo[2,3-b]pyridine-3-carbonyl)-2,4-difluoro-phenyl]-2-fluoro-benzenesulfonamide]
≤ 10 µM: [1] | [4] | [3]

O=C(c1c(F)ccc(NS(=O)(=O)c2ccc(OC(F)F)cc2)c1F)c1c[nH]c2ncc(Cl)cc12 [Compound P-1916, N-[3-(5-Chloro-1H-pyrrolo[2,3-b]pyridine-3-carbonyl)-2,4-difluoro-phenyl]-4-difluoromethoxy-benzenesulfonamide]
≤ 10 µM: [1] | [4] | [3]

COCCOc1cnc2[nH]cc(C(=O)c3c(F)ccc(NS(=O)(=O)c4ccc(C(F)(F)F)cc4)c3F)c2c1 [Compound P-2005, N-{2,4-Difluoro-3-[5-(2-methoxy-ethoxy)-1H-pyrrolo[2,3-b]pyridine-3-carbonyl]-phenyl}-4-trifluoromethyl-benzenesulfonamide]
≤ 10 µM: [1] | [4] | [3]

CCCS(=O)(=O)Nc1ccc(F)c(C(=O)c2c[nH]c3ncc(-c4nc(C)c[nH]4)cc23)c1F [Compound P-2006, Propane-1-sulfonic acid {2,4-difluoro-3-[5-(4-methyl-1H-imidazol-2-yl)-1H-pyrrolo[2,3-b]pyridine-3-carbonyl]-phenyl}-amide]
≤ 10 µM: [1] | [4] | [3]

COc1ccc(-c2cnc3[nH]cc(C(=O)c4c(F)ccc(NS(=O)(=O)c5cccc(F)c5)c4F)c3c2)cn1 [Compound P-2012, N-{2,4-Difluoro-3-[5-(6-methoxy-pyridin-3-yl)-1H-pyrrolo[2,3-b]pyridine-3-carbonyl]-phenyl}-3-fluoro-benzenesulfonamide]
≤ 10 µM: [1] | [4] | [3]

COCCOc1ccc(-c2cnc3[nH]cc(C(=O)c4c(F)ccc(NS(=O)(=O)c5ccc(C(F)(F)F)cc5)c4F)c3c2)cc1 [Compound P-2013, N-(2,4-Difluoro-3-{5-[4-(2-methoxy-ethoxy)-phenyl]-1H-pyrrolo[2,3-b]pyridine-3-carbonyl}-phenyl)-4-trifluoromethyl-benzenesulfonamide]
≤ 10 µM: [1] | [4] | [3]

From patent US8415469B2, “Compounds and methods for kinase modulation, and indications therefor” (Plexxikon Inc., priority 2005, dated 2013)
